Experimental data published in patent US20240316069A1, “METHODS OF TREATING MULTIPLE SCLEROSIS” (ASCENTAGE PHARMA (SUZHOU) CO., LTD., priority 2020, published 2024).
“Also recorded” adds a separate entry of the source.

What was measured:
[1] = test system: MOG35-55 induced experimental autoimmune encephalomyelitis (EAE) model in C57BL/6 mice; experiment: Clinical scores in MOG35-55 induced EAE model; type: in vivo
[2] = test system: MOG35-55 induced experimental autoimmune encephalomyelitis (EAE) model in C57BL/6 mice; experiment: Histopathologic assessment of spinal cord, LFB staining (demyelination) in EAE model; type: in vivo; conditions: for LFB staining score: day 21, spinal cord, scoring 0 to 4
Procedure: (§1) The mice were anesthetized with isoflurane and immunized with 300 μg MOG 35-55 peptide emulsified (1:1) in […] Freund's adjuvant with 600 μg Mycobacterium tuberculosis. Each mouse received 0.05 ml emulsion (s.c.) at four sites (back shoulder and tail root). The mice were further intraperitoneally injected with 250 μL pertussis toxin (1 μg/mL) at 0 h and 48 h post immunization. The day when MOG 35-55 peptide was injected was set as day 1.
(§2) Mice in Group 1 were treated with vehicle for 20 days (po, qd, from day 1-20). Mice in Group 2, Group 3 and Group 4 were treated with 100 mg/kg Compound 4 for 20 days (po, qd, from day 1-20), 14 days (po, qd, from day 7-20) and 7 days (po, qd, from day 14-20) respectively. FTY720 was used as positive control which was orally administered to mice in Group 5 for 20 days (qd, from day 1-20). The protocols and procedures involving the care and use of animals were approved by the Institutional Animal Care and Use Committee (IACUC) at Bioduro (Shanghai, China). The information of each group is as follows.
(§3) At the end of the study (day 21), all the animals were sacrificed by CO2, and the spinal cords were collected and fixed in 10% formalin for pathological analysis (H&E and LFB staining). The histopathological score was evaluated microscopically in a blinded manner.
The structure and morphology of spinal cord was evaluated by LFB staining using a scoring system from 0 to 4: 0 represents for no demyelination; 1, a small range of demyelination; 2, 2-3 small range of demyelination; 3, 1-2 large range of demyelination; 4, large-scale demyelination involves more than 20% of white matter areas.

[3] = test system: peripheral blood mononuclear cell (PBMC); experiment: Flow cytometry of PBMC lymphocyte subtypes in EAE model; type: in vivo, C57BL/6 mice; conditions: 100 mg/kg; day 21
[4] = test system: MOG35-55 induced experimental autoimmune encephalomyelitis (EAE) model in C57BL/6 mice; experiment: Histopathologic assessment of spinal cord, H&E staining (inflammation) in EAE model; type: in vivo; conditions: for H&E staining score: day 21, spinal cord, scoring 0 to 4
Procedure: as §1, §2, §3
The inflammation of spinal cord was evaluated by H&E staining using a scoring system from 0 to 4: 0, no inflammatory cell infiltration; 1, inflammatory cell infiltration is limited to perivascular and […]; 2, small amount of inflammatory cell infiltration in the spinal cord; 3, medium number of inflammatory cell infiltration in the spinal cord; 4, large number of inflammatory cell infiltration in the spinal cord.

[5] = clinical application; cited from earlier work
[6] = 100 mg/kg po qd, 7 days (d14-d20)
[7] = 100 mg/kg po qd, 14 days (d7-d20)
[8] = 100 mg/kg po qd, 20 days (d1-d20)

SMILES	clinical score ([1]; 100 mg/kg po qd, 14 days (d7-d20, Group 3), end of the study (day 21), scoring 0 to 5)	clinical score of EAE (result in words) ([1]; 100 mg/kg po qd, either of the three regimens (20, 14, 7 days))	LFB staining score [2, 6]	LFB staining score [2, 7]	LFB staining score [2, 8]	LFB staining scores (result in words) ([2]; FIG. 2 legend, regimen not stated)	number of B lymphocytes (CD45+CD3-B220+) in the PBMC [3]	number of CD4+ T lymphocytes (CD45+CD3+CD4+) in the PBMC [3]	number of CD8+ T lymphocytes (CD45+CD3+CD8+) in the PBMC [3]	number of T lymphocytes (CD45+CD3+) in the PBMC [3]	number of double negative T lymphocytes (CD45+CD3+CD4-CD8−) in the PBMC [3]	number of leukocytes (CD45+) in the PBMC [3]	H&E staining score [4, 6]	H&E staining score [4, 7]	H&E staining score [4, 8]	H&E staining scores (result in words) ([4]; FIG. 3 legend, regimen not stated)	symptoms of multiple sclerosis (clinical score, result in words) ([1]; 1 mpk po qd x 20 d (d1-d20), Group 5, entire experiment)	LFB staining score ([2]; 1 mpk po qd x 20 d (d1-d20))	cardiovascular toxicity [5]	H&E staining score ([4]; 1 mpk po qd x 20 d (d1-d20))
O=C(NS(=O)(=O)c1ccc(NC[C@H]2COCCO2)c([N+](=O)[O-])c1)c1ccc(N2CCN(CC3=C(c4ccc(Cl)cc4)CC4(CCC4)CC3)CC2)cc1Oc1cnc2[nH]ccc2c1 [Compound 4, (S)-N-((4-(((1,4-dioxan-2-yl)methyl)amino)-3-nitrophenyl)sulfonyl)-2-((1H-pyrrolo[2,3-b]pyridin-5-yl)oxy)-4-(4-((6-(4-chlorophenyl)spiro[3.5]non-6-en-7-yl)methyl)piperazin-1-yl)benzamide]	2.00±0.58	significantly reducing the clinical score of EAE; also recorded: reduced the clinical scores	1.30±0.37	1.33±0.44	1.80±0.29	reduced the LFB staining scores	significantly reduced	significantly reduced	significantly reduced	significantly reduced	significantly reduced	significantly reduced	2.10±0.41	1.11±0.33	2.00±0.39	reduced the H&E staining scores				
CCCCCCCCc1ccc(CCC(N)(CO)CO)cc1.Cl [FTY720, reference compound]																	no mice developing symptoms of multiple sclerosis	0	obvious cardiovascular toxicity	0
